Data published in article PMC11838007, “Contribution of telacebec to novel drug regimens in a murine tuberculosis model” (Antimicrobial Agents and Chemotherapy, 2024).
Values after ≈ are worked out from the molar mass of the structure shown. Read-outs that look alike come from different tables or passages of the source.

What was measured:
[1] = test system: M. tuberculosis H37Rv; test: microbe, parasite or virus in culture; type: cell-based
[2] = test system: M. tuberculosis H37Rv; type: in vivo, Mycobacterium tuberculosis
[3] = test system: M. tuberculosis HN878; test: microbe, parasite or virus in culture; type: cell-based
[4] = plasma, week 4, Experiment 3, mean ± SD; for Concentration of Telacebec at steady state, 1h: 1 h post-dose; for Concentration of Telacebec at steady state, 5h: 5 h post-dose; for Concentration of Telacebec at steady state, 24h: 24 h post-dose
Procedure: For S587 and its M3 metabolite, the mean concentrations were compared between mice administered S587 alone and mice administered S587 in combination with T 10 mg/kg (T10), T 50 mg/kg (T50), and T10 plus C. For T, the mean concentrations were compared between mice administered T10 alone and T10 in combination with S587 and S587 + C, as well as between mice administered T50 alone and T50 in combination with S587.
Multidose PK of T and TBAJ-587 in plasma was characterized in infected female BALB/c mice (Charles River Laboratories, Wilmington, MA) receiving oral doses once daily. In week 4 of treatment in Experiment 3, three mice per group per time point were sampled by submandibular bleed at 1, 5, and 24 hours post-dose. Drug concentrations were quantified by a validated high-performance liquid chromatography/mass spectrometry method (Alliance Pharma Inc, Devault, PA).

[5] = test system: M. tuberculosis; conditions: phase 2a study; cited from earlier work
[6] = test system: M. tuberculosis HN878; test: microbe, parasite or virus in culture; type: cell-based; remark: listed apart in the source
[7] = test system: M. tuberculosis H37Rv; test: microbe, parasite or virus in culture; type: cell-based; conditions: Mycobacterium tuberculosis, read-out: MIC, 7H9 Broth, H37Rv
[8] = test system: M. tuberculosis H37Rv; conditions: in vivo, 25 mg/kg; cited from earlier work
[9] = test system: M. tuberculosis HN878; test: Pyrazinamide susceptibility by MGIT; type: cell-based; conditions: Mycobacterium tuberculosis, susceptibility determined by MGIT, read-out: MIC, HN878 (7H9 Broth)
[10] = test system: M. tuberculosis H37Rv; test: Pyrazinamide susceptibility by MGIT; type: cell-based; conditions: Mycobacterium tuberculosis, susceptibility determined by MGIT, read-out: MIC, H37Rv (7H9 Broth)
[11] = Mycobacterium tuberculosis, H37RV; read-out: MIC, 7H11 Agar, H37Rv
[12] = Mycobacterium tuberculosis, HN878; read-out: MIC, 7H11 Agar, HN878
[13] = Mycobacterium tuberculosis, HN878; read-out: MIC, 7H9 Broth, HN878

With `CCc1nc2ccc(Cl)cn2c1C(=O)NCc1ccc(N2CCC(c3ccc(OC(F)(F)F)cc3)CC2)cc1` [Telacebec, telacebec] the MIC ([1]; Mycobacterium tuberculosis, 432 h; parental H37Rv strain; agar proportion method; […]; read-out: MIC) was 0.008 µg/mL (≈ 0.0144 µM), the MIC [1, 11] was 0.008 µg/mL (≈ 0.0144 µM) and the “effect of single drug treatment on lung CFU counts compared to D0” value ([2]; Experiment 3, T at 10 and 50 mg/kg, 4 weeks, no dose-response) was “bacteriostatic”. The “mean (±SD) log10 CFU counts, W4” value ([2]; Experiment 3, lungs, 4 weeks of treatment, T at 10 mg/kg where given, S587 12.5, C 12.5, Z 150 mg/kg, D0 7.52 ± 0.13) was 7.65 ± 0.05 log10 CFU, the “mean (±SD) log10 CFU counts, W4” value ([2]; Experiment 3, lungs, 4 weeks of treatment, T at 50 mg/kg, S587 12.5 mg/kg, D0 7.52 ± 0.13) was 7.70 ± 0.06 log10 CFU and the MIC [3, 12] was 0.002 µg/mL (≈ 0.00359 µM). For the same compound, the “Concentration of Telacebec at steady state, 1h” value ([4]; T 10 mg/kg) was 1462 ± 435 ng/mL, the “Concentration of Telacebec at steady state, 1h” value ([4]; T 50 mg/kg) was 2642 ± 1857 ng/mL and the “Concentration of Telacebec at steady state, 5h” value ([4]; T 10 mg/kg) was 2265 ± 102 ng/mL. The “Concentration of Telacebec at steady state, 5h” value ([4]; T 50 mg/kg) was 7310 ± 3990 ng/mL, the “Concentration of Telacebec at steady state, 24h” value ([4]; T 10 mg/kg) was 921 ± 337 ng/mL and the “Concentration of Telacebec at steady state, 24h” value ([4]; T 50 mg/kg) was 3008 ± 330 ng/mL. For the same compound, the “early bactericidal activity in TB patients” value [5] was “dose-dependent early bactericidal activity”.
With `COc1cc([C@](O)(CCN(C)C)[C@@H](c2cc3cc(Br)ccc3nc2OC)c2cc(OC)nc(OC)c2OC)cc(OC)n1` [TBAJ-876] the MIC [1, 11] was 0.002 to 0.004 µg/mL (≈ 0.00304 to 0.00608 µM), the “reduction of CFU counts over 4 weeks compared to D0” value ([2]; Experiment 2, S876 6.25 mg/kg, 4 weeks) was “more than 3.5 log10” and the “mean (±SD) log10 CFU counts, W4” value ([2]; Experiment 2, lungs, 4 weeks of treatment, doses mg/kg/dose as subscripts, bid = twice daily, D0 7.51 ± 0.06, lower limit of detection 1.66 log10) was 3.74 ± 0.44 log10 CFU. It also gave an MIC [3, 12] of 0.004 µg/mL (≈ 0.00608 µM).
With `COc1c(N2C[C@@H]3CCCN[C@@H]3C2)c(F)cc2c(=O)c(C(=O)O)cn(C3CC3)c12` [Moxifloxacin, moxifloxacin] the MIC [6, 13] was 0.25 µg/mL (≈ 0.623 µM) and the MIC [7] was 0.5 µg/mL (≈ 1.25 µM).
For `COc1cc([C@](O)(CCN(C)C)[C@@H](c2cc3cc(Br)ccc3nc2OC)c2cccc(OC)c2F)cc(OC)n1` [TBAJ-587], the MIC ([1]; Mycobacterium tuberculosis, H37RV, read-out: MIC, 7H11 Agar, H37Rv) was 0.008 µg/mL (≈ 0.013 µM), the “mean (±SD) log10 CFU counts, W4” value ([2]; in vivo) was 3.40 ± 0.47 log10 CFU and the “reduction of bacterial burden over 4 weeks” value ([2]; in vivo, 12.5 mg/kg) was “more than 4 log10”. The MIC ([3]; Mycobacterium tuberculosis, HN878, read-out: MIC, 7H11 Agar, HN878) was 0.004 µg/mL (≈ 0.00651 µM) and the “reduction of lung CFU count over 4 weeks” value [8] was “approximately 5 log10”.
Compound `CO[C@H]1/C=C/O[C@@]2(C)Oc3c(C)c(O)c4c(O)c(c(/C=N/N5CCN(C)CC5)c(O)c4c3C2=O)NC(=O)/C(C)=C\C=C\[C@H](C)[C@H](O)[C@@H](C)[C@@H](O)[C@@H](C)[C@H](OC(C)=O)[C@@H]1C` [Rifampin] has an MIC ([6]; Mycobacterium tuberculosis, HN878, read-out: MIC, 7H9 Broth, HN878) of 0.25 µg/mL (≈ 0.304 µM) and an MIC [7] of 0.25 µg/mL (≈ 0.304 µM).
In the case of `CC(=O)NC[C@H]1CN(c2ccc(N3CCOCC3)c(F)c2)C(=O)O1` [Linezolid, linezolid], the MIC [1, 11] was 0.5 µg/mL (≈ 1.48 µM), the MIC [6, 13] was 0.5 µg/mL (≈ 1.48 µM) and the MIC [7] was 1 µg/mL (≈ 2.96 µM).
For `O=[N+]([O-])c1cn2c(n1)OC[C@@H](OCc1ccc(OC(F)(F)F)cc1)C2` [Pretomanid, pretomanid], the MIC [1, 11] was 0.06 µg/mL (≈ 0.167 µM), the MIC [6, 13] was 0.06 µg/mL (≈ 0.167 µM) and the MIC [3, 12] was 0.125 µg/mL (≈ 0.348 µM). For the same compound, the MIC [7] was 0.125 µg/mL (≈ 0.348 µM).
`CC(C)/N=c1\cc2n(-c3ccc(Cl)cc3)c3ccccc3nc-2cc1Nc1ccc(Cl)cc1` [Clofazimine, clofazimine] showed an MIC [1, 11] of 0.25 µg/mL (≈ 0.528 µM) and an MIC [3, 12] of 0.25 µg/mL (≈ 0.528 µM).
In the case of `COc1nc2ccc(Br)cc2cc1[C@@H](c1ccccc1)[C@@](O)(CCN(C)C)c1cccc2ccccc12` [Bedaquiline, bedaquiline], the MIC [1, 11] was 0.03 µg/mL (≈ 0.054 µM), the MIC [3, 12] was 0.03 µg/mL (≈ 0.054 µM) and the MIC [7] was 0.25 µg/mL (≈ 0.45 µM).
For `NC(=O)c1cnccn1` [Pyrazinamide, pyrazinamide], the MIC [9] was < 100 µg/mL and the MIC [10] was < 100 µg/mL.
`COc1ncnc(Cn2cc(C(=O)NCCO)c3ncc(C)cc32)c1C` [TBA-7371] showed an MIC [1, 11] of 0.25 µg/mL (≈ 0.703 µM) and an MIC [3, 12] of 0.5 µg/mL (≈ 1.41 µM).
